Source: patent publication US20190062736A1, “IN SITU AND IN VIVO ANALYSIS OF CHROMATIN INTERACTIONS BY BIOTINYLATED DCAS9 PROTEIN” (BOARD OF REGENTS, THE UNIVERSITY OF TEXAS SYSTEM, priority 2017, published 2019)
Entries after “also recorded” stand apart in the source; their conditions may differ.

Columns and labels:
human erythroid cells = assay: Erythroid maturation by CD71/CD235a flow cytometry and cytospin after JQ1; format: cell-based; details: JQ1 vs DMSO, cell surface markers CD71 and CD235a, cytospin
Procedure: (§1) Cells and Cell Culture. Human […] K562 cells were obtained from ATCC and cultured in IMDM medium containing 10% FBS and 1% penicillin/streptomycin. pEF1α-FB-dCas9 and pEF1α-BirA-V5 vectors were co-transfected into K562 cells by nucleofection using the ECM 830 Square Wave Electroporation System (Harvard Apparatus, Holliston, Mass.). Cells were plated in 96-well plates and treated with 1 μg/ml of puromycin (Sigma) and 600 μg/ml of G418 (Sigma) 48-72 hour post-transfection. Single-cell-derived clones were isolated and examined by Western blot analysis to screen for FB-dCas9 and BirA-expressing stable clones. Human primary adult erythroid progenitor cells were generated ex vivo from CD34+ HSPCs as previously described (Huang et al., 2016). Primary HSPCs from both sexes were used in this study. […] Mouse male embryonic stem cells (ESCs) were cultured on primary embryonic fibroblasts and differentiated to embryoid bodies (EBs) by LIF withdrawal for 8 days. All cultures were incubated at 37° C. in 5% CO2. […]
Flow Cytometry. Human erythroid cell differentiation was analyzed by flow cytometry using FACSCanto. […] The cells were analyzed for expression of cell surface receptors with antibodies specific for CD71 and CD235a conjugated to phycoerythrin (PE) and fluorescein isothiocyanate (FITC), respectively. Data were analyzed using FlowJo software (Ashland, Oreg.). […]

[1] = test system: human primary erythroid cells; assay: qRT-PCR of β-globin mRNAs after JQ1 treatment; format: cell-based; details: JQ1 vs DMSO
Procedure: as §1, with “CO2. All cell lines were tested for mycoplasma contamination.” for “CO2.”
RNA-seq and qRT-PCR Analysis. […] Sequencing reads from all RNA-seq experiments were aligned to human (hg19) reference genome by TopHat v2.0.13 (Trapnell et al., 2009) with the parameters: --solexaquals --no-novel-juncs. Quantitative RT-PCR (qRT-PCR) was performed using the iQ SYBR Green Supermix (Bio-Rad).

Cc1sc2c(c1C)C(c1ccc(Cl)cc1)=N[C@@H](CC(=O)OC(C)(C)C)c1nnc(C)n1-2 [JQ1]
erythroid differentiation (human erythroid cells): without apparent effects | β-globin mRNAs [1]: significant downregulation; also recorded: significantly decreased
